# pIC50: −log10 of the molar value.
# Key:
# DAOY cells = assay: Combination therapy viability assay, DAOY; conditions: Homo sapiens, 72 h, read-out: IC50 of compound 2
# MON cells = assay: Combination therapy viability assay, MON; format: cell-based; conditions: Homo sapiens, cytotoxic drug alone, 72 hours, read-out: IC50 of compound 2
# BT-16 cells = assay: Combination therapy viability assay, BT-16; format: cell-based; conditions: Homo sapiens, cytotoxic drug alone, 72 hours, read-out: IC50 of compound 2
Structure (SMILES),pIC50 (DAOY cells),pIC50 (MON cells),pIC50 (BT-16 cells)
"COc1cc([C@@H]2c3cc4c(cc3[C@@H](O[C@@H]3O[C@@H]5CO[C@@H](C)O[C@H]5[C@H](O)[C@H]3O)[C@H]3COC(=O)[C@H]23)OCO4)cc(OC)c1O [Etoposide, etoposide]",6.31,6.01,6.10
"COc1cccc2c1C(=O)c1c(O)c3c(c(O)c1C2=O)C[C@@](O)(C(=O)CO)C[C@@H]3O[C@H]1C[C@H](N)[C@H](O)[C@H](C)O1 [Doxorubicin, doxorubicin]",6.58,6.87,5.84
